Reference: patent publication US12636372B2, “Immolative cell-penetrating complexes for nucleic acid delivery to the lung” (The Board of Trustees of the Leland Stanford Junior …, priority 2019, dated 2026)

Experiment: In vitro toxicity assay: MTT proliferation assay
Format: cell-based
Conditions: 3 day incubation
Description: FIGS. 3A-3F show the in vitro reporter and toxicity assays.

NCCCC[C@H](NCCO)C(=O)O [hydroxyethyl lysine]
Cellular viability: not affected
